According to the NIST ThermoML archive (doi:10.1021/je400917j):

Assay: xn = mol fraction of the nth substance listed
Conditions: 101 kPa, Liquid; for mass density: Vibrating tube method

CCCC(C)O (stereo unspecified) [pentan-2-ol] + CC(=O)N(C)C
Conditions	mass density, 298.15 K [kg/m3]	mass density, 303.15 K [kg/m3]	mass density, 308.15 K [kg/m3]	mass density, 313.15 K [kg/m3]	viscosity, 298.15 K [mPa·s]	viscosity, 303.15 K [mPa·s]	viscosity, 308.15 K [mPa·s]	viscosity, 313.15 K [mPa·s]
x2 = 0	805.4	800.9	796.9	792.6	3.5	2.83	2.35	1.98
x2 = 0.0811	813.4	809	804.9	800.3	2.87	2.42	2.08	1.75
x2 = 0.16	821.8	817.3	813	808.2	2.35	2.01	1.8	1.52
x2 = 0.2399	830.7	826	821.6	816.6	1.93	1.69	1.57	1.33
x2 = 0.35	843.5	838.7	834.1	828.9	1.52	1.38	1.29	1.13
x2 = 0.4398	854.5	849.6	845	839.6	1.3	1.21	1.14	1.01
x2 = 0.5595	870.1	865	860.4	854.9	1.13	1.07	0.99	0.89
x2 = 0.6499	882.5	877.5	872.8	867.4	1.05	0.99	0.91	0.83
x2 = 0.7398	895.4	890.4	885.8	880.5	0.99	0.93	0.86	0.793
x2 = 0.8499	912.1	907.3	902.8	897.8	0.95	0.89	0.82	0.761
x2 = 0.9398	926.5	921.9	917.5	913	0.938	0.878	0.804	0.752

CC(=O)N(C)C [N,N-dimethylethanamide] + CCC(C)O
Conditions	mass density, 298.15 K [kg/m3]	mass density, 303.15 K [kg/m3]	mass density, 308.15 K [kg/m3]	mass density, 313.15 K [kg/m3]	viscosity, 298.15 K [mPa·s]	viscosity, 303.15 K [mPa·s]	viscosity, 308.15 K [mPa·s]	viscosity, 313.15 K [mPa·s]
x1 = 0.0812	813.5	808.9	804.1	799.4	2.57	2.19	1.89	1.62
x1 = 0.1602	823.6	818.7	813.6	808.6	2.16	1.88	1.65	1.44
x1 = 0.2401	833.9	828.7	823.7	818.1	1.81	1.61	1.45	1.27
x1 = 0.3499	848.2	842.6	837.1	831.6	1.45	1.35	1.25	1.12
x1 = 0.4355	859.4	853.8	848	842.5	1.27	1.21	1.14	1.03
x1 = 0.56	876	870.3	864.7	859	1.14	1.09	1.02	0.93
x1 = 0.65	888.1	882.5	876.8	871.4	1.08	1.03	0.95	0.88
x1 = 0.7398	900.3	894.9	890.2	884.2	1.03	0.98	0.91	0.84
x1 = 0.8498	915.4	910.3	906.1	900.3	0.99	0.93	0.86	0.8
x1 = 0.9389	927.8	923.1	918.9	914	0.96	0.91	0.82	0.77
x1 = 1	936.5	932	927.8	923.5	0.94	0.87	0.8	0.75
